Test results from patent publication US20110230424A1, “OPHTHALMIC SOLUTIONS, INCLUDING CONTACT LENS CARE AND EYE DROPS COMPRISING CARNOSINE, PREFERABLY IN COMBINATION WITH DEXPANTHENOL AND/OR HYALURONIC ACID” (priority 2008, published 2011).

Columns and labels:
[1] = phonophoresis or subconjunctival injection, cited from earlier work
[2] = Stability of carnosine in contact lens care solution; assay type: physicochemical; conditions: under circumstances; carnosine utilized by bacteria and/or fungi in the solution

Row | stability of carnosine present in the contact lens care solution [2] | Structure (SMILES) | time within which carnosine accumulates in the aqueous humour after topical administration ([1]; 1% N-acetylcarnosine added to the eye) [min] | effectiveness of carnosine administration in itself to the eye ([1]; quickly metabolised by carnosinase in the eye)
1 | – | CC(=O)NCCC(=O)N[C@@H](Cc1cnc[nH]1)C(=O)O [N-acetylcarnosine, reference compound] | 15 to 30 | –
2 | less stable than expected | NCCC(=O)N[C@@H](Cc1cnc[nH]1)C(=O)O [carnosine, (2S)-2-[(3-Amino-1-oxopropyl)amino]-3-(3H-imidazol-4-yl)propanoic acid] | – | ineffective
